This passage reports EC50 results from patent US20240247080A1, “GLP1/GIP/NPY2 RECEPTOR TRIPLE AGONISTS” (Boehringer Ingelheim International GmbH, priority 2022, published 2024).

Format in all cases: cell-based
What all share (conditions): CreLuc reporter gene assay

One test deals with T1, hGLP1R (Homo sapiens, UniProt P43220).
T1 construct: expressed in transfected cells; host or cells: HEK-293 cells carrying a CRE-luciferase reporter gene
Put plainly: hGLP1R CreLuc reporter gene assay in 0.5% and 100% plasma. The gist of the method:
(§1)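 HEK-293 cells co-expressing GLP-1 or NPY2 receptor and CHO cells expressing GIP receptor, each carrying a CRE-driven luciferase reporter, were stimulated with peptides for 4 hours at 37 °C. Luminescence was read after Bright-Glo addition. EC50 came from 8-point, four-decade curves fitted by variable-slope non-linear regression.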
In general terms: Reporter assays use an easily measured gene product as a stand-in for the process of interest.

Another test deals with T2, hNPY2R (Homo sapiens, UniProt P49146).
T2 construct: expressed in transfected cells; host or cells: HEK-293 cells carrying a CRE-luciferase reporter gene
T2 sequence (P49146 1-381): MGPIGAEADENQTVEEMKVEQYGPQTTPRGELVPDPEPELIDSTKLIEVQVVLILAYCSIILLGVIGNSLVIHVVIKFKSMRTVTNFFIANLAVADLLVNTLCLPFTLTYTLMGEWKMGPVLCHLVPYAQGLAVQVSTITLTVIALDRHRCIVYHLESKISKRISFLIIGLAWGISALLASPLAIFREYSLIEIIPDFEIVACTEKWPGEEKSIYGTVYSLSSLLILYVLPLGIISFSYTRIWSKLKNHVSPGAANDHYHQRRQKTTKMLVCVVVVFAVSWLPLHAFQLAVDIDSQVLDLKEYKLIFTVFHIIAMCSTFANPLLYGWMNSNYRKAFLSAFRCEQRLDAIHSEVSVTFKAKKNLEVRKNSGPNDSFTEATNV
Description: hNPY2R CreLuc reporter gene assay in 0.5% and 100% plasma. In a few lines: as §1

In another test the target is T3, hGIPR (Homo sapiens, UniProt P48546).
T3 construct: expressed in transfected cells; host or cells: CHO cells carrying a CRE-luciferase reporter gene
T3 sequence (P48546 22-466): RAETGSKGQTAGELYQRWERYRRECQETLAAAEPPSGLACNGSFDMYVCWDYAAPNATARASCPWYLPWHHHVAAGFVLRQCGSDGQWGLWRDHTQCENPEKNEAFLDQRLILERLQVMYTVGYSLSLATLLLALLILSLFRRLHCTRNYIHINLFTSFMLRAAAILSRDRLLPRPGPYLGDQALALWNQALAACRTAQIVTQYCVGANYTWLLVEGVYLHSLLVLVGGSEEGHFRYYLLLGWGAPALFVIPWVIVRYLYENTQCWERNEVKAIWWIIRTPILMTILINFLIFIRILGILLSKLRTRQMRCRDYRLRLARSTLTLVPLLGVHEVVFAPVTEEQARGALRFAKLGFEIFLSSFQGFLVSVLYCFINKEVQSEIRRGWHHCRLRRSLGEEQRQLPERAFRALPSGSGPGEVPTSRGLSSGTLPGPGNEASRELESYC
Description: hGIPR CreLuc reporter gene assay in 0.5% and 100% plasma. The gist of the method:
as §1

[1] abbreviates: 0.5% human plasma, read-out: hGLP1R 0.5% hP.
The mark [2] stands for this setting: 0.5% human plasma, read-out: hNPY2R 0.5% hP.
Setting [3] is: 0.5% human plasma, read-out: hGIPR 0.5% hP.
Where [4] appears, read: 100% human plasma, read-out: hGIPR 100% hP.
[5] abbreviates: 100% human plasma, read-out: hGLP1R 100% hP.
Setting [6] is: 100% human plasma, read-out: hNPY2R 100% hP.

Like-named read-outs stand apart in the source and are kept apart here. Starred links: 1 amine or outer side, 2 acyl side, 3 side chain; linkers in the order of their positions; H or OH if unused. Positions of bridges follow the written chain, without caps; N, C: chain ends. Non-standard residues stand in square brackets, D forms with d. Groups on a side chain read outwards from the residue. Chains are numbered I, II in the order given. *: point of attachment. C20 diacid = O=C(O)CCCCCCCCCCCCCCCCCCC(=O)*; C18 diacid = O=C(O)CCCCCCCCCCCCCCCCC(=O)*; γGlu = O=C(O)[C@H](CCC(=O)[*:2])N[*:1]; εLys = N[C@@H](CCCCN[*:1])C(=O)[*:2]; Tle = CC(C)(C)[C@H](N)C(=O)O; AEEA = NCCOCCOCC(=O)O; Aib = CC(C)(N)C(=O)O

T1 sequence (P43220 24-463): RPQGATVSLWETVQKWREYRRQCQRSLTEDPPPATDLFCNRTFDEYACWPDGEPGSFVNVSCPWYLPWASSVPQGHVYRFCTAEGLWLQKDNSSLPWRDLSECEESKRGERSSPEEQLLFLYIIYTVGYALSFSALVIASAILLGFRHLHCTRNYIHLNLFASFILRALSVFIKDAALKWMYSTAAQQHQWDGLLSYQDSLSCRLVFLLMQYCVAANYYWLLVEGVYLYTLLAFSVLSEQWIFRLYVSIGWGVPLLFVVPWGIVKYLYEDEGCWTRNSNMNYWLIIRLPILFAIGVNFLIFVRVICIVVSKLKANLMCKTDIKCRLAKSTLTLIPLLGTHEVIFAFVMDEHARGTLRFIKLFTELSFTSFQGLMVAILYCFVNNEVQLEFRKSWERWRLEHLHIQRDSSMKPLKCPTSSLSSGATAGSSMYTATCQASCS

“H-Y[Aib]EGTFTSDYSI[Aib]LEEEAQ[Aib]AFVQWLIK([εLys-εLys-γGlu-γGlu-γGlu-γGlu-γGlu-C20 diacid])GGPSSGASLRHYYNWLTRQRY-NH2 [Compound 7, Y-Aib-E-G-T-F-T-S-D-Y-S-I-Aib-L-E-E-E-A-Q-Aib-A-F-V-Q-W-L-I-K(1,3)-GGPSSGASLRHYYNWLTRQRY-NH2.C20DA-gGlu-gGlu-gGlu-gGlu-gGlu-eLys-eLys(1,2)]”: the EC50 at hGLP1R (setting [1]) was found to be 0.13 nM; on hNPY2R (setting [2]), 16.9 nM; on hGIPR (setting [3]), 0.23 nM; at hGIPR (setting [4]), 0.63 nM.
Consider “H-Y[Aib]EGTFTSDYSI[Aib]LEKQAQ[Aib]EFVEWLIK([εLys-γGlu-γGlu-γGlu-γGlu-γGlu-γGlu-γGlu-C20 diacid])GGPSSGASLRHYYNWLTRQRY-NH2 [Compound 88, Y-Aib-E-G-T-F-T-S-D-Y-S-I-Aib-L-E-K-Q-A-Q-Aib-E-F-V-E-W-L-I-K(1,3)-GGPSSGASLRHYYNWLTRQRY-NH2.C20DA-gGlu-gGlu-gGlu-gGlu-gGlu-gGlu-gGlu-eLys(1,2)]”, for which the EC50 was found to be 7.18 nM on hGLP1R (setting [5]), 45.4 nM on hNPY2R (setting [6]), 0.53 nM on hGIPR (setting [3]) and 1.58 nM on hGIPR (setting [4]).
As for “H-Y[Aib]EGTFTSDYSI[Aib]LEKQAQ[Aib]AFVQWLIK([AEEA-AEEA-γGlu-γGlu-γGlu-γGlu-C18 diacid])GGPEEGASLRHYYNWLTRQRY-NH2 [Compound 146, Y-Aib-E-G-T-F-T-S-D-Y-S-I-Aib-L-E-K-Q-A-Q-Aib-A-F-V-Q-W-L-I-K(1,3)-GGPEEGASLRHYYNWLTRQRY-NH2.C18DA-gGlu-gGlu-gGlu-gGlu-OEG-OEG(1,2)]”, the EC50 on hGLP1R (setting [1]) came to 0.14 nM; on hNPY2R (setting [2]) it was 14 nM; at hGIPR (setting [3]) it was 0.77 nM; at hGIPR (setting [4]), 0.73 nM.
Consider “H-Y[Aib]EGTFTSDYSI[Aib]LEKQAQ[Aib]AFVEWLIK([εLys-γGlu-γGlu-γGlu-γGlu-γGlu-γGlu-C20 diacid])GGPSSGES[Aib]RHYYNWLTRQRY-NH2 [Compound 49, Y-Aib-E-G-T-F-T-S-D-Y-S-I-Aib-L-E-K-Q-A-Q-Aib-A-F-V-E-W-L-I-K(1,3)-G-G-P-S-S-G-E-S-Aib-R-H-Y-Y-N-W-L-T-R-Q-R-Y-NH2.C20DA-gGlu-gGlu-gGlu-gGlu-gGlu-gGlu-eLys(1,2)]”, for which the EC50 is 0.12 nM on hGLP1R (setting [1]); 12.5 nM on hNPY2R (setting [2]); 36.8 nM on hNPY2R (setting [6]); 0.07 nM at hGIPR (setting [3]); 1.25 nM at hGIPR (setting [4]).
Turning to “H-Y[Aib]EGTFTSDYSI[Aib]LEKQAQ[Aib]AFVEWLIK([εLys-γGlu-γGlu-γGlu-γGlu-γGlu-γGlu-C20 diacid])GGPSSGASLRHY[Tle]NWLTRQRY-NH2 [Compound 133, Y-Aib-E-G-T-F-T-S-D-Y-S-I-Aib-L-E-K-Q-A-Q-Aib-A-F-V-E-W-L-I-K(1,3)-G-G-P-S-S-G-A-S-L-R-H-Y-Tle-N-W-L-T-R-Q-R-Y-NH2.C20DA-gGlu-gGlu-gGlu-gGlu-gGlu-gGlu-eLys(1,2)]”, the EC50 is 0.16 nM at hGLP1R (setting [1]), 14.1 nM on hNPY2R (setting [2]) and 0.48 nM on hGIPR (setting [3]).
In the case of “H-Y[Aib]EGTFTSDYSI[Aib]LEKQAQ[Aib]EFVQWLIK([γGlu-γGlu-γGlu-γGlu-C20 diacid])GGPSEGASLRHYYNWLTRQRY-NH2 [Compound 194, Y-Aib-E-G-T-F-T-S-D-Y-S-I-Aib-L-E-K-Q-A-Q-Aib-E-F-V-Q-W-L-I-K(1,3)-GGPSEGASLRHYYNWLTRQRY-NH2.C20DA-gGlu-gGlu-gGlu-gGlu(1,2)]”, the EC50 at hGLP1R (setting [1]) amounted to 0.29 nM; on hGLP1R (setting [5]) it was 14.2 nM; on hNPY2R (setting [2]) it was 13.8 nM; on hGIPR (setting [3]), 0.2 nM; on hGIPR (setting [4]) it was 1.83 nM.
On to “H-Y[Aib]EGTFTSDYSI[Aib]LEKQAQ[Aib]AFVEWLIK([εLys-γGlu-γGlu-γGlu-γGlu-γGlu-γGlu-C20 diacid])GGPSSGASL[Aib]HYYNWLTRQRY-NH2 [Compound 129, Y-Aib-E-G-T-F-T-S-D-Y-S-I-Aib-L-E-K-Q-A-Q-Aib-A-F-V-E-W-L-I-K(1,3)-G-G-P-S-S-G-A-S-L-Aib-H-Y-Y-N-W-L-T-R-Q-R-Y-NH2.C20DA-gGlu-gGlu-gGlu-gGlu-gGlu-gGlu-eLys(1,2)]”, for which the EC50 at hGLP1R (setting [1]) came to 0.04 nM; on hNPY2R (setting [2]) it was 30.9 nM; at hNPY2R (setting [6]) it was 87.6 nM; on hGIPR (setting [3]) it was 0.06 nM; at hGIPR (setting [4]), 0.5 nM.
As for “H-Y[Aib]EGTFTSDYSI[Aib]LEKQAQ[Aib]AFVEWLIK([AEEA-AEEA-γGlu-γGlu-γGlu-γGlu-C20 diacid])GGPSEPASLRHYYNWLTRQRY-NH2 [Compound 226, Y-Aib-E-G-T-F-T-S-D-Y-S-I-Aib-L-E-K-Q-A-Q-Aib-A-F-V-E-W-L-I-K(1,3)-GGPSEPASLRHYYNWLTRQRY-NH2.C20DA-gGlu-gGlu-gGlu-gGlu-OEG-OEG(1,2)]”, the EC50 on hGLP1R (setting [1]) amounted to 0.24 nM; at hNPY2R (setting [6]) it was 46.3 nM; at hGIPR (setting [3]) it was 0.43 nM.
For “I: H-Y[Aib]EGTFTSDYSI[Aib]LEKQAQ[Aib]AFVQWLIKGGPSEGASLRHYYNWLTRQRY-NH2 / II: {C18 diacid}-EEEEEE (amide I:28-II:C) [Compound 264, Y-Aib-E-G-T-F-T-S-D-Y-S-I-Aib-L-E-K-Q-A-Q-Aib-A-F-V-Q-W-L-I-K(1,3)-GGPSEGASLRHYYNWLTRQRY-NH2.C18DA-E-E-E-E-E-E(1,2)]”, the EC50 on hGLP1R (setting [1]) was found to be 0.11 nM; on hGLP1R (setting [5]), 3.95 nM; at hNPY2R (setting [2]), 16.7 nM; at hGIPR (setting [3]) it was 0.28 nM; on hGIPR (setting [4]), 1.82 nM.
